Source: patent US7973027B2, “Compound with antimalarial activity and antimalarial drug containing the same as active ingredient” (Nagoya City University, priority 2006, dated 2011)

Experiments:
[1] = test system: Plasmodium falciparum (ATCC 30932, FCR-3 strain); test: Evaluation of antimalarial activity (infected human erythrocytes, Giemsa staining); assay type: cell-based; conditions: 37° C., 72 hours, values in FIG. 8 only, stated in words
Procedure: Human erythrocyte infected with malaria parasite (Plasmodium falciparum (ATCC 30932, FCR-3 strain)) is prepared on a 24-well culture plate and 5 μl each of DMSO solutions of antimalarial drug candidate compounds prepared at various concentrations is added. Thereafter, the erythrocyte is cultured at 37° C. for 72 hours. A part of the cultured erythrocyte is subjected to Giemsa staining. Then, the number of cells infected with malaria is counted under microscope. EC50 values are calculated based on the measurement values.

[2] = test system: Mouse mammary tumor FM3A cells; test: Evaluation of cytotoxicity; assay type: cell-based; conditions: 37° C., 48 hours, values in FIG. 8 only, stated in words
Procedure: (2) Evaluation Method of Cytotoxicity (See Hye-Sook Kim; Yasuharu Shibata; Yusuke Wataya; Kaoru Tsuchida; Araki Masuyama; Masatomo Nojima. J. Med. Chem. 1999, 42, 2604-2609)
The concentration of […] (Mouse mammary tumor FM3A cells) is adjusted to 5×10^4 cells/ml, and 5 μl of DMSO solutions of antimalarial drug candidate compounds prepared at various concentrations is added. The cells area cultured at 37° C. for 48 hours and then, the number of surviving cells is counted by the use of microcell counter CC-130 (To a Medical Electric Co.). The measurement results are compared with the results obtained from the control experiment so as to calculate EC50 value.

antimalarial activity (EC50) [1]: higher antimalarial activity
SMILES: CN(CCNC(=O)C=Cc1c[nH]cn1)CCNc1ccnc2cc(Cl)ccc12 [uro-2Q, N-(2-{[2-(7-Chloro-quinolin-4-ylamino)ethyl]methylamino}ethyl)-3-(1H-imidazol-4-yl)acrylamide]
cytotoxicity (EC50) [2]: lower toxicity as compared with existing drugs
